Patent publication US10688093B2, “Methods, compositions, and uses of novel Fyn kinase inhibitors” (priority 2015, dated 2020)

biological target: full-length recombinant human FYN A (Homo sapiens (Human), UniProt P06241); assay: ADP-Glo Kinase Assay of FYN kinase inhibition; assay type: biochemical; conditions: primary screen, initial compounds
Outline: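 ADP-Glo read-out of peptide phosphorylation after 90 min RT with 12.5 pmol ATP and 100 pg 12-mer substrate. Enzyme was N-GST full-length human FYN A from insect cells, 3 pg, pre-incubated 30 min with compound, 10 points from 10 μM top, 3-fold steps; IC50 from curve.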

full-length recombinant human FYN A, sequence (P06241 whole entry): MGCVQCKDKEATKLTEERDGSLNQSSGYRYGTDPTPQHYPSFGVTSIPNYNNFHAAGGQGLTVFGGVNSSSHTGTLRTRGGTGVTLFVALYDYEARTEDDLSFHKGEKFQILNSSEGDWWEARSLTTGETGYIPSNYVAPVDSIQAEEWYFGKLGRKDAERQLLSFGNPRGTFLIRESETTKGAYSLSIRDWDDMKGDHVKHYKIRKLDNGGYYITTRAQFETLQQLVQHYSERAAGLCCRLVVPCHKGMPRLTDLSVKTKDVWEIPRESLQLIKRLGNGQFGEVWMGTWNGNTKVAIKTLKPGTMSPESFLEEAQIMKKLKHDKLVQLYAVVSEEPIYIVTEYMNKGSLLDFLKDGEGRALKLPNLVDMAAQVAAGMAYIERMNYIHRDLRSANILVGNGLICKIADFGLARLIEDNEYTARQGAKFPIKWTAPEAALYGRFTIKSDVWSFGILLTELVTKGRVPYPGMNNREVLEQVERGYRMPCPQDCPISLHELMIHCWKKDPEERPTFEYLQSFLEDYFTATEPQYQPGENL

Compared with `COc1cc(-c2cc(-c3ccc(F)cc3)cnc2N)cc(OC)c1OC` [382_0087_0339, 5-(4-fluoro-phenyl)-3-(3,4,5-trimethoxy-phenyl)pyridin-2-amine], `COc1cc(-c2cc(-c3ccc(O)cc3)cnc2N)cc(OC)c1OC` [382_0087_7249, 4-[6-amino-5-(3,4,5-trimethoxy-phenyl)-3-pyridyl]phenol] is 1.7-fold lower in IC50: 2.86 µM for the first, 1.73 µM for the second.

Going from `COc1cc(-c2cc(-c3ccoc3)cnc2N)cc(OC)c1OC` [382_0087_0343, 5-(3-furyl)-3-(3,4,5-trimethoxy-phenyl)pyridin-2-amine] to `COc1cc(-c2cnc(N)c(-c3cccc(O)c3)c2)cc(OC)c1OC` [382_0284_0087, 3-[2-amino-5-(3,4,5-trimethoxy-phenyl)-3-pyridyl]phenol], the IC50 falls from 12.1 µM to 1.02 µM (12-fold). The second is the more potent here.

`COc1cc(-c2cc(-c3ccc(C(N)=O)cc3)cnc2N)cc(OC)c1OC` [382_0087_0346, 4-[6-amino-5-(3,4,5-trimethoxy-phenyl)-3-pyridyl]benzamide] and `COc1cc(-c2cc(-c3ccc(C(=O)NC4CC4)cc3)cnc2N)cc(OC)c1OC` [382_0087_7489, 4-[6-amino-5-(3,4,5-trimethoxy-phenyl)-3-pyridyl]-N-cyclopropyl-benzamide] are within 1.5-fold of each other in IC50: 0.4 µM for the first, 0.507 µM for the second.

First: COc1cccc(-c2cnc(N)c(-c3cc(OC)c(OC)c(OC)c3)c2)c1 [382_0087_4140, 5-(3-methoxyphenyl)-3-(3,4,5-trimethoxyphenyl) pyridin-2-amine]
Second: COc1cc(-c2cnc(N)c(-c3cccc(N(C)C)c3)c2)cc(OC)c1OC [382_0135_0087, 3-[3-(dimethyl-amino)phenyl]-5-(3,4,5-trimethoxy-phenyl)pyridin-2-amine]
The IC50 of the first is 3-fold higher: 9.5 µM for the first, 3.13 µM for the second.

Going from `COc1cc(-c2cc(-c3cccc(NS(C)(=O)=O)c3)cnc2N)cc(OC)c1OC` [382_0087_6488, N-[3-[6-amino-5-(3,4,5-trimethoxy-phenyl)-3-pyridyl]phenyl] methane-sulfonamide] to `COc1cc(-c2cnc(N)c(-c3ccc(O)cc3)c2)cc(OC)c1OC` [382_7249_0087, 4-[2-amino-5-(3,4,5-trimethoxy-phenyl)-3-pyridyl]phenol], the IC50 falls from 0.525 µM to 0.209 µM (2.5-fold).

First: CN(C)CCCOc1ccc(-c2cnc(N)c(-c3cccc(N(C)C)c3)c2)cn1 [382_0135_0002, 3-[3-(dimethylamino)phenyl]-5-[6-[3-(dimethyl-amino)propoxy]-3-pyridyl]pyridin-2-amine]
Second: CN(C)c1cccc(-c2cc(-c3cccnc3)cnc2N)c1 [382_0135_0071, 3-[3-(dimethyl-amino)phenyl]-5-(3-pyridyl)pyridin-2-amine]
The IC50 of the first is 1.5-fold lower: 4.66 µM for the first, 7.11 µM for the second. The first is the more potent here.

First: COc1ccc(-c2cnc(N)c(-c3cccc(N(C)C)c3)c2)cc1OC [382_0135_0079, 5-(3,4-dimethoxy-phenyl)-3-[3-(dimethylamino)phenyl]pyridin-2-amine]
Second: COc1cc(-c2cnc(N)c(-c3cccc(N(C)C)c3)c2)ccc1O [382_0135_0314, 4-[6-amino-5-[3-(dimethylamino)phenyl]-3-pyridyl]-2-methoxy-phenol]
The IC50 of the first is 2.4-fold higher: 5.05 µM for the first, 2.11 µM for the second.

`CN(C)c1cccc(-c2cc(-c3cccc(C(=O)NCCO)c3)cnc2N)c1` [382_0135_0192, 3-[6-amino-5-[3-(dimethylamino)phenyl]-3-pyridyl]-N-(2-hydroxyethyl) benzamide] and `CN(C)c1cccc(-c2cc(-c3cccc(C(N)=O)c3)cnc2N)c1` [382_0135_0347, 3-[6-amino-5-[3-(dimethylamino)phenyl]-3-pyridyl] benzamide] are within 1.5-fold of each other in IC50: 3.57 µM for the first, 3.52 µM for the second.

Compared with `CN1CCN(C(=O)c2cccc(-c3cnc(N)c(-c4cccc(N(C)C)c4)c3)c2)CC1` [382_0135_0200, [3-[6-amino-5-[3-(dimethylamino)phenyl]-3-pyridyl]phenyl]-(4-methyl-piperazin-1-yl)methanone], `CN(C)c1cccc(-c2cc(-c3cccc(CO)c3)cnc2N)c1` [382_0135_0291, [3-[6-amino-5-[3-(dimethylamino)phenyl]-3-pyridyl]phenyl] methanol] is 1.6-fold lower in IC50: 4.44 µM for the first, 2.7 µM for the second.

Compared with `Cc1cc(-c2cnc(N)c(-c3cccc(N(C)C)c3)c2)cc(C)c1O` [382_0135_0315, 4-[6-amino-5-[3-(dimethylamino)phenyl]-3-pyridyl]-2,6-dimethyl-phenol], `COc1cc(-c2cc(-c3cc(C)c(O)c(C)c3)cnc2N)ccc1O` [382_0314_0315, 4-[6-amino-5-(4-hydroxy-3-methoxy-phenyl)-3-pyridyl]-2,6-dimethyl-phenol] is 8-fold lower in IC50: 4.2 µM for the first, 0.526 µM for the second. The second is the more potent here.

`Nc1ncc(-c2ccc(N3CCOCC3)cc2)cc1-c1cccc(O)c1` [382_0284_0001, 3-[2-amino-5-(4-morpholino-phenyl)-3-pyridyl]phenol] and `COc1cccc(-c2cnc(N)c(-c3ccc(O)cc3)c2)c1` [382_7249_4140, 4-[2-amino-5-(3-methoxyphenyl)-3-pyridyl]phenol] are within 1.5-fold of each other in IC50: 4.64 µM for the first, 3.49 µM for the second.

Going from `COc1ccc(-c2cnc(N)c(-c3cccc(O)c3)c2)cc1OC` [382_0284_0079, 3-[2-amino-5-(3,4-dimethoxy-phenyl)-3-pyridyl]phenol] to `COc1cccc(-c2cnc(N)c(-c3ccc(O)c(OC)c3)c2)c1` [382_0314_4140, 4-[2-amino-5-(3-methoxyphenyl)-3-pyridyl]-2-methoxy-phenol], the IC50 falls from 2 µM to 1.2 µM (1.7-fold). The second is the more potent here.

`COc1ccc(-c2cnc(N)c(-c3ccc(CO)cc3)c2)cc1OC` [382_0285_0079, [4-[2-amino-5-(3,4-dimethoxy-phenyl)-3-pyridyl]phenyl] methanol] and `COc1ccc(-c2cnc(N)c(-c3ccc(O)c(OC)c3)c2)cc1` [382_0314_0280, 4-[2-amino-5-(4-methoxyphenyl)-3-pyridyl]-2-methoxy-phenol] are within 1.5-fold of each other in IC50: 5.13 µM for the first, 4.16 µM for the second.

`Cc1cc(-c2cnc(N)c(-c3ccc(CO)cc3)c2)cc(C)c1O` [382_0285_0315, 4-[6-amino-5-[4-(hydroxymethyl)phenyl]-3-pyridyl]-2,6-dimethyl-phenol] and `COc1cc(-c2cc(-c3ccc(C)cc3)cnc2N)ccc1O` [382_0314_4139, 4-[2-amino-5-(p-tolyl)-3-pyridyl]-2-methoxy-phenol] are within 1.5-fold of each other in IC50: 4.64 µM for the first, 4.34 µM for the second.

First: COc1cc(-c2cc(-c3ccccc3)cnc2N)ccc1O [382_0314_0061, 4-(2-amino-5-phenyl-3-pyridyl)-2-methoxy-phenol]
Second: COc1cc(-c2cc(-c3cccc(Cl)c3)cnc2N)ccc1O [382_0314_0279, 4-[2-amino-5-(3-chlorophenyl)-3-pyridyl]-2-methoxy-phenol]
The IC50 of the first is 2.4-fold lower: 1.48 µM for the first, 3.51 µM for the second.

Compared with `COc1cc(-c2cc(-c3cc(OC)c(OC)c(OC)c3)cnc2N)ccc1O` [382_0314_0087, 4-[2-amino-5-(3,4,5-trimethoxy-phenyl)-3-pyridyl]-2-methoxy-phenol], `COCOc1ccc(-c2cc(-c3cc(OC)c(OC)c(OC)c3)cnc2N)cc1` [382_0341_0087, 3-[4-(methoxymethoxy)phenyl]-5-(3,4,5-trimethoxy-phenyl)pyridin-2-amine] is 24-fold higher in IC50: 0.0806 µM for the first, 1.9 µM for the second. The first is the more potent here.

Going from `COc1cc(-c2cc(-c3ccc(F)c(Cl)c3)cnc2N)ccc1O` [382_0314_0164, 4-[2-amino-5-(3-chloro-4-fluoro-phenyl)-3-pyridyl]-2-methoxy-phenol] to `COc1cc(-c2cc(-c3cccc(F)c3)cnc2N)ccc1O` [382_0314_0313, 4-[2-amino-5-(3-fluorophenyl)-3-pyridyl]-2-methoxy-phenol], the IC50 falls from 11.3 µM to 2.03 µM (5.6-fold). The second is the more potent here.

First: COc1cc(-c2cc(-c3ccc(S(C)(=O)=O)cc3)cnc2N)ccc1O [382_0314_0174, 4-[2-amino-5-(4-methylsulfonyl-phenyl)-3-pyridyl]-2-methoxy-phenol]
Second: COc1cc(-c2cc(-c3ccc(F)cc3)cnc2N)ccc1O [382_0314_0339, 4-[2-amino-5-(4-fluorophenyl)-3-pyridyl]-2-methoxy-phenol]
The IC50 of the first is 9.3-fold lower: 0.349 µM for the first, 3.24 µM for the second. The first is the more potent here.

Compared with `COCOc1ccc(-c2cc(-c3cccc(NC(C)=O)c3)cnc2N)cc1` [382_0341_0081], `COCOc1ccc(-c2cc(-c3cccc(C(N)=O)c3)cnc2N)cc1` [382_0341_0347, 3-[6-amino-5-[4-(methoxymethoxy)phenyl]-3-pyridyl]benzamide] is 1.9-fold higher in IC50: 1.55 µM for the first, 3.02 µM for the second. The first is the more potent here.

`COCOc1ccc(-c2cc(-c3cccc(CO)c3)cnc2N)cc1` [382_0341_0291, [3-[6-amino-5-[4-(methoxymethoxy)phenyl]-3-pyridyl]phenyl] methanol] and `COCOc1ccc(-c2cc(-c3ccc(C(N)=O)cc3)cnc2N)cc1` [382_0341_0346, 4-[6-amino-5-[4-(methoxy-methoxy)phenyl]-3-pyridyl] benzamide] are within 1.5-fold of each other in IC50: 4.62 µM for the first, 3.42 µM for the second.

Compared with `CC(=O)Nc1cccc(-c2cnc(N)c(-c3ccc(O)cc3)c2)c1` [382_7249_0081, N-[3-[6-amino-5-(4-hydroxyphenyl)-3-pyridyl]phenyl] acetamide], `CN(C)c1cccc(-c2cnc(N)c(-c3ccc(O)cc3)c2)c1` [382_7249_0135, 4-[2-amino-5-[3-(dimethylamino)phenyl]-3-pyridyl]phenol] is 2.6-fold higher in IC50: 0.838 µM for the first, 2.19 µM for the second. The first is the more potent here.

Compared with `CS(=O)(=O)c1ccc(-c2cnc(N)c(-c3ccc(O)cc3)c2)cc1` [382_7249_0174, 4-[2-amino-5-(4-methylsulfonyl-phenyl)-3-pyridyl]phenol], `OCc1ccc(-c2cn3c(-c4ccsc4)cnc3cn2)cc1` [388_0074_0285, [4-[3-(3-thienyl)imidazo [1,2-a]pyrazin-6-yl]phenyl] methanol] is 1.9-fold higher in IC50: 1.25 µM for the first, 2.35 µM for the second.

Compared with `CN(C)CCNC(=O)c1ccc(-c2cn3c(-c4ccncc4)cnc3cn2)cc1` [388_0069_0327, N-(2-dimethylamino-ethyl)-4-[3-(4-pyridyl)imidazo [1,2-a]pyrazin-6-yl]benzamide], `c1cncc(-c2cn3c(-c4ccsc4)cnc3cn2)c1` [388_0074_0071, 6-(3-pyridyl)-3-(3-thienyl)imidazo [1,2-a]pyrazine] is 1.6-fold lower in IC50: 6.91 µM for the first, 4.34 µM for the second. The second is the more potent here.

Going from `c1ccc(-c2cn3c(-c4ccsc4)cnc3cn2)cc1` [388_0074_0061, 6-phenyl-3-(3-thienyl)imidazo [1,2-a]pyrazine] to `Cn1cc(-c2cn3c(-c4ccsc4)cnc3cn2)cn1` [388_0074_8400, 6-(1-methylpyrazol-4-yl)-3-(3-thienyl)imidazo [1,2-a]pyrazine], the IC50 rises from 3.95 µM to 6.38 µM (1.6-fold). The first is the more potent here.
